Drawing on patent US20110105436A1, “HETEROARYL COMPOUNDS, COMPOSITIONS, AND METHODS OF USE IN CANCER TREATMENT” (AUCKLAND UNISERVICES LIMITED, priority 2008, published 2011), this text covers IC50 and melting point for 33 molecules.

Bounds are passed on as bounds.

One data set has as its system RCC4 cells. Nature of the data set: XTT assay in VHL-deficient RCC4 cells. It is filed as cell-based. As to conditions: Homo sapiens, 96 h, XTT assay, VHL-deficient RCC4 cells, four days. As for the experimental part: Cell Viability and XTT assays. For cell viability, 100,000 cells were plated in a 12-well plate. The following day, 1.25 μM STF-62247 was added in the presence or absence of 1 mM 3-MA for 24 hours at 37° C. Cells were trypsinized and counted by trypan blue exclusion. For XTT assays, 5000 RCC4 with and without VHL cells or 2,500 SN12C with and without VHL shRNA cells were plated in 96-well plates. The following day, vehicle (DMSO), STF-62247 or each of 19 analogs were added to media by serial dilution. Four days later, the media was aspirated and XTT solution containing 0.3 mg/ml of XTT (Sigma Chemical Co) in Phenol Red-free media, 20% FCS and 2.65 mg/ml N-methyl dibenzopyrazine methyl sulfate (PMS) was added to the cells and incubated at 37° C. for 1-2 hours. Metabolism of XTT was quantified by measuring the absorbance at 450 nm on a plate reader.
On the technique in general: Formazan colour is commonly taken as a measure of viable cells.

On to `Cc1cccc(N(CCO)c2nc(-c3ccncc3)cs2)c1` [Compound 97, 2-{3-Methyl[4-(4-pyridinyl)-1,3-thiazol-2-yl]anilino}ethanol], for which the melting point (usually the temperature, or range, at which the solid turns liquid) fell in the range of 149 to 151 °C. Further, the 50% inhibitory concentration (IC50) (in general, the point on the concentration scale where inhibition reaches its midpoint) in the data set on RCC4 cells (Table 1) is over 40 µM.
For `COC(=O)CCc1sc(Nc2cccc(C)c2)nc1-c1ccncc1` [Compound 79, Methyl 3-[2-[(3-Methylphenyl)amino]-4-(4-pyridinyl)-1,3-thiazol-5-yl]propanoate] the same measures were 121 to 123 °C and over 40 µM.
Taken in the same sequence, the figures for `O=C(Nc1nc(-c2ccncc2)cs1)c1ccccc1` [Compound 99, N-[4-(4-Pyridinyl)-1,3-thiazol-2-yl]benzamide] were 241 to 243 °C and over 40 µM.
Taken in the same sequence, the figures for `N#Cc1cccc(Nc2nc(-c3ccncc3)cs2)c1` [Compound 127, 3-{[4-(4-Pyridinyl)-1,3-thiazol-2-yl]amino}benzonitrile] were 252 to 253 °C and over 40 µM.
Molecule `O=[N+]([O-])c1ccc(Nc2nc(-c3ccncc3)cs2)cc1` [Compound 35, N-(4-Nitrophenyl)-4-(4-pyridinyl)-1,3-thiazol-2-amine] gave a melting point of over 290 °C. This molecule also yielded a 50% inhibitory concentration (IC50) in the data set on RCC4 cells (Table 1) of over 40 µM.
Taken in the same sequence, the figures for `CC(C)(C)c1cccc(Nc2nc(-c3ccncc3)cs2)c1` [Compound 11, N-(3-tert-Butylphenyl)-4-(4-pyridinyl)-1,3-thiazol-2-amine] were 208 to 210 °C and over 40 µM.
For `Fc1cccc(F)c1Nc1nc(-c2ccncc2)cs1` [Compound 139, N-(2,6-Difluorophenyl)-4-(4-pyridinyl)-1,3-thiazol-2-amine] the same measures were 209 to 211 °C and over 40 µM.
Taken in the same sequence, the figures for `COc1cc(Nc2nc(-c3ccncc3)cs2)cc(OC)c1` [Compound 57, N-(3,5-Dimethoxyphenyl)-4-(4-pyridinyl)-1,3-thiazol-2-amine] were 229 to 231 °C and over 40 µM.
Take `N#Cc1ccc(Nc2nc(-c3ccncc3)cs2)cc1` [Compound 135, 4-{[4-(4-Pyridinyl)-1,3-thiazol-2-yl]amino}benzonitrile]: the melting point is over 300 °C. Also, the IC50 with RCC4 cells (Table 1) was over 40 µM.
Taken in the same sequence, the figures for `Cc1cccc(Nc2nc(-c3ccncc3)c(C(=O)NCCN(C)C)s2)c1` [Compound 93, N-[2-(Dimethylamino)ethyl]-2-[(3-methylphenyl)amino]-4-(4-pyridinyl)-1,3-thiazole-5-carboxamide] were 189 to 191 °C and over 40 µM.
In turn, `Cc1cccc(Nc2nc(-c3ccncc3)co2)c1` [Compound 105, N-(3-Methylphenyl)-4-(4-pyridinyl)-1,3-oxazol-2-amine] displayed a melting point of 201 to 204 °C. This molecule also showed an IC50 with RCC4 cells (Table 1) of over 40 µM.
In turn, `Cc1ccccc1Nc1nc(-c2ccncc2)cs1` [Compound 111, N-(2-Methylphenyl)-4-(4-pyridinyl)-1,3-thiazol-2-amine] returned a melting point of 158 to 160 °C. Besides, the IC50 in the data set with RCC4 cells (Table 1) is over 40 µM.
Taken in the same sequence, the figures for `Cc1cccc(Nc2nc(-c3ccncc3)c(C=O)s2)c1` [Compound 77, 2-[(3-Methylphenyl)amino]-4-(4-pyridinyl)-1,3-thiazole-5-carbaldehyde] were 220 to 223 °C and 15 µM.
Taken in the same sequence, the figures for `CCOC(=O)c1sc(Nc2cccc(C)c2)nc1-c1ccncc1` [Compound 88, Ethyl 2-[(3-Methylphenyl)amino]-4-(4-pyridinyl)-1,3-thiazole-5-carboxylate] were 233 to 235 °C and over 40 µM.
Taken in the same sequence, the figures for `CCOC(=O)c1sc(Nc2ccc3c(c2)CCC3)nc1-c1ccncc1` [Compound 89, Ethyl 2-(2,3-Dihydro-1H-inden-5-ylamino)-4-(4-pyridinyl)-1,3-thiazole-5-carboxylate] were 203 to 205 °C and over 40 µM.
On to `COc1ccc(C(=O)Nc2nc(-c3ccncc3)cs2)cc1` [Compound 102, 4-Methoxy-N-[4-(4-pyridinyl)-1,3-thiazol-2-yl]benzamide], for which the melting point lay in the range of 271 to 274 °C. The molecule further showed an IC50 with RCC4 cells (Table 1) of over 40 µM.
Taken in the same sequence, the figures for `COc1cc(Nc2nc(-c3ccncc3)cs2)cc(OC)c1OC` [Compound 63, 4-(4-Pyridinyl)-N-(3,4,5-trimethoxyphenyl)-1,3-thiazol-2-amine] were 207 to 209 °C and over 40 µM.
For `FC(F)(F)c1ccccc1Nc1nc(-c2ccncc2)cs1` [Compound 117, 4-(4-Pyridinyl)-N-[2-(trifluoromethyl)phenyl]-1,3-thiazol-2-amine] the same measures were 170 to 172 °C and over 40 µM.
Taken in the same sequence, the figures for `Cc1cccc(C)c1Nc1nc(-c2ccncc2)cs1` [Compound 137, N-(2,6-Dimethylphenyl)-4-(4-pyridinyl)-1,3-thiazol-2-amine] were 208 to 210 °C and over 40 µM.
Molecule `Cc1cccc(Nc2nc(-c3ccnc(C)c3)cs2)c1` [Compound 145, N-(3-Methylphenyl)-4-(2-methyl-4-pyridinyl)-1,3-thiazol-2-amine] yielded a melting point of 198 to 200 °C. For the same molecule, the concentration for half-maximal inhibition (IC50) with RCC4 cells (Table 2) was over 40 µM.
Regarding `Cc1cccc(Nc2nc(-c3ccncc3)c(C(=O)NCCCN3CCOCC3)s2)c1` [Compound 94, 2-[(3-Methylphenyl)amino]-N-[3-(4-morpholinyl)propyl]-4-(4-pyridinyl)-1,3-thiazole-5-carboxamide], the melting point lay within 190 to 192 °C. The half-maximal inhibitory concentration (IC50) in the data set on RCC4 cells (Table 1) is over 40 µM.
For `Cc1cccc(CNc2nc(-c3ccncc3)cs2)c1` [Compound 103, N-(3-Methylbenzyl)-4-(4-pyridinyl)-1,3-thiazol-2-amine] the same measures were 192 to 194 °C and over 40 µM.
Consider `Fc1cccc(Nc2nc(-c3ccncc3)cs2)c1` [Compound 121, N-(3-Fluorophenyl)-4-(4-pyridinyl)-1,3-thiazol-2-amine], for which the melting point was in the range of 229 to 230 °C. Also, in the data set with RCC4 cells (Table 1), the IC50 was over 40 µM.
As to `Cc1cccc(Nc2nc(-c3ccncc3N)cs2)c1` [Compound 182], the melting point lay within 159 to 161 °C. Also, the IC50 in the data set on RCC4 cells (Table 2) was over 40 µM.
For `Cc1cccc(Nc2nc(-c3cc[n+]([O-])cc3)cs2)c1` [Compound 188, N-(3-Methylphenyl)-4-(1-oxido-4-pyridinyl)-1,3-thiazol-2-amine] the same measures were 162 to 164 °C and over 40 µM.
Turning to `c1cc(-c2csc(Nc3ccc4c(c3)OCO4)n2)ccn1` [Compound 59, N-(1,3-Benzodioxol-5-yl)-4-(4-pyridinyl)-1,3-thiazol-2-amine], the melting point is 201 to 203 °C. In the data set with RCC4 cells (Table 1), this molecule yielded an IC50 of over 40 µM.
In the case of `FC(F)(F)c1cccc(Nc2nc(-c3ccncc3)cs2)c1` [Compound 19, 4-(4-Pyridinyl)-N-[3-(trifluoromethyl)phenyl]-1,3-thiazol-2-amine], the melting point was 239 to 241 °C. This molecule also displayed a half-inhibitory concentration (IC50) with RCC4 cells (Table 1) of over 40 µM.
On to `COc1ccc(Nc2nc(-c3ccncc3)cs2)cc1O` [Compound 51, 2-Methoxy-5-{[4-(4-pyridinyl)-1,3-thiazol-2-yl]amino}phenol], for which the melting point is 230 to 232 °C.
Molecule `O=[N+]([O-])c1cccc(Nc2nc(-c3ccncc3)cs2)c1` [Compound 129, N-(3-Nitrophenyl)-4-(4-pyridinyl)-1,3-thiazol-2-amine] displayed a melting point of 244 to 247 °C. In the data set on RCC4 cells (Table 1), this molecule registered a concentration for half-maximal inhibition (IC50) of over 40 µM.
For `Cc1cccc(C(=O)Nc2nc(-c3ccncc3)cs2)c1` [Compound 100, 3-Methyl-N-[4-(4-pyridinyl)-1,3-thiazol-2-yl]benzamide] the same measures were 201 to 202 °C and over 40 µM.
Taken in the same sequence, the figures for `O=[N+]([O-])c1ccccc1Nc1nc(-c2ccncc2)cs1` [Compound 119, N-[2-Nitrophenyl]-4-(4-pyridinyl)-1,3-thiazol-2-amine] were 127 to 130 °C and over 40 µM.
For `Cc1ccc(C(=O)Nc2nc(-c3ccncc3)cs2)cc1` [Compound 101, 4-Methyl-N-[4-(4-pyridinyl)-1,3-thiazol-2-yl]benzamide] the same measures were 238 to 241 °C and over 40 µM.
In turn, `Cc1cccc(Nc2nc(-c3ccncc3)c[nH]2)c1` [Compound 196, N-(3-Methylphenyl)-4-(4-pyridinyl)-1H-imidazol-2-amine] yielded a melting point of 170 to 171 °C.
